In patent publication US11680060B2, “Bicycloheptane pyrrolidine orexin receptor agonists” (Merck Sharp & Dohme LLC, priority 2020, dated 2023):

Biological target: human OX2R (Homo sapiens (Human), UniProt O43614)
Experiment: IPOne (IP-1) assay in CHO cells expressing human OX2R
Type: cell-based
Details: for Emax: CHO, percentage of mean max effect of a reference compound at 1 uM (100% activity by comparison to Orexin A), human OX2R, read-out: Emax (%); for IC50: CHO cells expressing human OX2R, IP-One detection, 2 hours incubation, EC50 = inflection point of four parameter logistic fit, read-out: hOX2R_IP_IC50
From the text: The utility of the compounds in accordance with the present invention as orexin receptor OX1R and/or OX2R agonists may be readily determined without undue experimentation by methodology well known in the art. Both the OX1R and/or OX2R G-coupled protein receptors (GPCRs) couple through the Gαq signaling pathway, which ultimately promotes calcium mobilization via inositol triphosphate (IP3) production. The half-life of IP-3 is relatively short, being rapidly metabolized to inositol monophosphate (IP-1), which can be readily detected using a commercially available assay kit (IP-One; Cisbio; cat #621PAPEC) coupled with a cell line expressing the target receptor(s) of interest. The utility of the compounds in accordance with the present invention as orexin receptor OX1R and/or OX2R agonists may be determined utilizing this assay.
In a typical experiment, the OX1 and OX2 receptor agonist activity is determined in accordance with the following general experimental method. Chinese hamster ovary (CHO) cells expressing human OX1R and/or the human OX2R were grown in Iscove's modified DMEM containing glutaMAX™, 1% G418, 100 U/mL penicillin, 100 μg/mL streptomycin and 10% heat-inactivated qualified fetal bovine serum (FBS). The OX2R cells were seeded at 10,000 cells/well/50 μL and the OX1R cells were seeded at 20,000 cells/well/50 μL into 384-well white tissue culture plates (Greiner; cat #781080). All cell/media reagents were from GIBCO-Invitrogen Corp. The seeded cell plate(s) were incubated at 37° C. with 5% CO2 and 85% humidity for 20-24 hours. On the day of the assay, assay-ready compound plates were prepared using an acoustic liquid handler (ECHO; Labcyte), which dispensed sufficient volume of test compound stock (10 mM in DMSO) or 100% DMSO to prepare 10 point, ½-log dilutions in a final volume of 202.5 nL/well in all test wells of a 384-well diamond plate (Labcyte). Following completion of assay-ready plates, importantly, the next three steps were performed with minimal delay: 1) 20 μl of 1× stimulation buffer was added to the compound plate using a Multidrop Combi (small cassette, Thermo Fisher Scientific cat #24073290); 2) culture medium was removed from the cell plate using the Bluewasher plate washer (gentle spin; BlueCatBio); 3) 14 μl of compound/stimulation buffer mixture was added to the cell plate using a Bravo liquid handler (Agilent) prior to incubating cell plates at 37° C. with 5% CO2 and 85% humidity for 1 or 2 hours (OX1R and OX2R, respectively). During this incubation, IP-one detection reagents were prepared (38:1:1 lysis buffer:D2:AB-cryptate reagents). Six μL of mixed detection reagents were added to the cell plate using a Multidrop Combi (small cassette, Thermo Fisher Scientific cat #24073290) and incubated 60 minutes at room temperature in the dark. Fluorescence signal was detected using an Envision plate reader (Perkin Elmer) [LANCE/DELFIA Dual Enh (Em: APC 665; Ex: Cy5 620)].
For each compound, data were fit to a four parameter logistic fit (ActivityBase software) and the EC50 was reported as the inflection point of the resulting curve. Percent effect for each test compound was determined as the percentage of sample raw value/mean max effect, where the mean max effect was derived from the mean raw value of 32 control wells per assay plate (using Orexin A (cat #003-30) at 1 μM for human OX1R and a reference compound at 1 uM with 100% activity previously established by comparison to Orexin A for human OX2R). The intrinsic orexin receptor agonist activity of a compound which may be used in the present invention may be determined by these assays.

Chain of human OX2R (O43614 whole entry): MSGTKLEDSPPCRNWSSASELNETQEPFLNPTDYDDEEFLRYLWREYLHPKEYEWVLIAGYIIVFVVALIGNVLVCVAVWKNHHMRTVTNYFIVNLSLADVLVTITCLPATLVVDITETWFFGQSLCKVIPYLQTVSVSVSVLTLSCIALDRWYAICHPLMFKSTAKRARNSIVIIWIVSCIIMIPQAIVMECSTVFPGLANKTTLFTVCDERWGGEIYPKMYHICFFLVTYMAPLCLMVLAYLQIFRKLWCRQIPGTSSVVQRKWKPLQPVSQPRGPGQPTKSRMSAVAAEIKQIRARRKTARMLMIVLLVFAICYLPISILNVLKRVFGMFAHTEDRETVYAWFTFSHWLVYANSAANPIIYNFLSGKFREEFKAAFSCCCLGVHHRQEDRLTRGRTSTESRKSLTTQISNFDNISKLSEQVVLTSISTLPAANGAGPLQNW

| Emax [%] | IC50 [nM] | SMILES |
| --- | --- | --- |
| 99.5 |  | CC(C)OC(=O)N1[C@H](C)C[C@H](NS(=O)(=O)N(C)C)[C@@H]1CO[C@@H]1CC[C@]2(c3ncccn3)C[C@@H]2C1 [Example 170, isopropyl (2R,3S,5R)-3-((N,N-dimethylsulfamoyl)amino)-5-methyl-2-((((1R,3R,6S)-6-(pyrimidin-2-yl)bicyclo[4.1.0]heptan-3-yl)oxy)methyl)pyrrolidine-1-carboxylate] |
| 100 |  | CC(C)OC(=O)N1[C@H](C)C[C@H](NS(=O)(=O)N(C)C)[C@@H]1COC1CCC2(c3ncc(F)cn3)CC2C1 (stereo partly drawn) [Example 164, isopropyl (2R,3S,5R)-3-((N,N-dimethylsulfamoyl)amino)-2-(((6-(5-fluoropyrimidin-2-yl)bicyclo[4.1.0]heptan-3-yl)oxy)methyl)-5-methylpyrrolidine-1-carboxylate] |
| 103 |  | COC(=O)N1[C@H](C)C[C@H](NS(=O)(=O)N2CCC2)[C@@H]1CO[C@H]1CC[C@@]2(c3ncc(F)cn3)C[C@H]2C1 [Example 39, methyl (2R,3S,5R)-3-(azetidine-1-sulfonamido)-2-((((1S,3S,6R)-6-(5-fluoropyrimidin-2-yl)bicyclo[4.1.0]heptan-3-yl)oxy)methyl)-5-methylpyrrolidine-1-carboxylate] |
| 102 |  | COC(=O)N1[C@H](C)C[C@H](NS(C)(=O)=O)[C@@H]1COC1CCC2(c3ncccn3)CC2C1 (stereo partly drawn) [Example 184, methyl (2R,3S,5R)-5-methyl-3-(methylsulfonamido)-2-(((6-(pyrimidin-2-yl)bicyclo[4.1.0]heptan-3-yl)oxy)methyl)pyrrolidine-1-carboxylate] |
| 101 | 1.8 | CC(C)OC(=O)N1[C@H](C)C[C@H](NS(=O)(=O)CF)[C@@H]1CO[C@H]1CC[C@@]2(c3ncc(Cl)cn3)C[C@H]2C1 (single isomer, unassigned) [Example 95] |
| 102 |  | CC(C)OC(=O)N1CCC[C@H](NS(=O)(=O)C(F)(F)F)[C@@H]1COC1CC[C@@]2(c3ncc(F)cn3)CC2C1 (stereo partly drawn) [Example 123, isopropyl (2R,3S)-2-(((6-(5-fluoropyrimidin-2-yl)bicyclo[4.1.0]heptan-3-yl)oxy)methyl)-3-((trifluoromethyl)sulfonamido)piperidine-1-carboxylate] |
| 104 |  | CCC(F)(F)COC(=O)N1[C@H](C)C[C@H](NS(C)(=O)=O)[C@@H]1CO[C@H]1CC[C@@]2(c3ncc(F)cn3)C[C@H]2C1 [Example 60, 2,2-difluorobutyl (2R,3S,5R)-2-((((1S,3S,6R)-6-(5-fluoropyrimidin-2-yl)bicyclo[4.1.0]heptan-3-yl)oxy)methyl)-5-methyl-3-(methylsulfonamido)pyrrolidine-1-carboxylate] |
| 74.5 |  | COC(=O)N1[C@H](C)C[C@H](NS(C)(=O)=O)[C@@H]1COC1CCC2(c3ncc(F)c(C)n3)CC2C1 (stereo partly drawn) [Example 77, methyl (2R,3S,5R)-2-(((6-(5-fluoro-4-methylpyrimidin-2-yl)bicyclo[4.1.0]heptan-3-yl)oxy)methyl)-5-methyl-3-(methylsulfonamido)pyrrolidine-1-carboxylate] |
| 103 |  | COC[C@@H]1C[C@H](NS(C)(=O)=O)[C@H](CO[C@H]2CC[C@@]3(c4ncc(F)cn4)C[C@H]3C2)N1C(=O)OC [Example 132, methyl (2R,3S,5S)-2-((((1S,3S,6R)-6-(5-fluoropyrimidin-2-yl)bicyclo[4.1.0]heptan-3-yl)oxy)methyl)-5-(methoxymethyl)-3-(methylsulfonamido)pyrrolidine-1-carboxylate] |
| 101 | 4.5 | COC(=O)N1[C@H](C)C[C@H](NS(C)(=O)=O)[C@@H]1CO[C@H]1CC[C@@]2(c3ncccn3)C[C@H]2C1 (single isomer, unassigned) [Example 181] |
| 100 | 4.5 | CC(C)OC(=O)N1[C@H](C)C[C@H](NS(=O)(=O)C(F)F)[C@@H]1CO[C@H]1CC[C@@]2(c3ncc(Cl)cn3)C[C@H]2C1 (single isomer, unassigned) [Example 81] |
